Measured values as given in patent US20240148718A1, “INHIBITING MUTANT ISOCITRATE DEHYDROGENASE 1 (mIDH-1)” (FORMA Therapeutics, Inc., priority 2018, published 2024).

Tests used:
BCL6 = BCL6 (Homo sapiens, UniProt P41182); assay: Surface Plasmon Resonance (SPR), control surface; type: binding; conditions: immobilized unrelated protein BCL6
[1] = system: IDH1m clone in AML patients; assay: IDH1 Variant Allele Frequency (VAF) analysis in Phase 1 patients; type: in vivo, human
Procedure: Next generation sequencing was carried out through target enrichment using HaloPlex® Target followed by Illumina® sequencing; coverage>100X across 75 genes. Digitial droplet PCR (ddPCR) was carried out through an input of 20 ng on a Stilla 3-channel system; VAF data based on >20,000 droplets.
25 patients achieved an objective response and 6 patients with SD had available longitudinal samples for analysis (VAF at C3).

[2] = system: AML/MDS harboring IDH1-R132 mutations; assay: Phase 1 dose escalation and expansion study, investigator-assessed response; type: in vivo, human

binding to control surface (BCL6): no binding was observed
SMILES: C[C@H](Nc1ccc(C#N)n(C)c1=O)c1cc2cc(Cl)ccc2[nH]c1=O [Compound 1, 5-{[(1S)-1-(6-chloro-2-oxo-1,2-dihydroquinolin-3-yl)ethyl]amino}-1-methyl-6-oxo-1,6-dihydropyridine-2-carbonitrile]
patients with clearance/significant reduction of the IDH1m VAF ([1]; 3 of 6 patients with stable disease): 50% | patients with IDH1 mutation clearance/significant VAF reduction ([1]; 10 of 25 patients with an IWG (objective) response, single agent or with azacitidine, VAF at ≥C3): 40% | IDH1 mutation and 2-HG, case study 2 ([1]; one treatment naive AML secondary to MDS patient, single agent, stable for 15 cycles, no IWG response): IDH1 mutation clearance and normalization of 2-HG were observed | CR/CRm, n (%) ([2]; All Pts): 5 (16) n (%) | CRh, n (%) ([2]; All Pts): 3 (9) n (%) | Marrow CR, n (%) ([2]; All Pts): 1 (3) n (%) | PD, n (%) ([2]; All Pts): 3 (9) n (%) | CR/CRm, n (%) ([2]; R/R AML): 4 (18) n (%) | CRh, n (%) ([2]; R/R AML): 3 (14) n (%) | Cri, n (%) ([2]; R/R AML): 2 (9) n (%) | NE, n (%) ([2]; R/R AML): 6 (27) n (%) | PD, n (%) ([2]; R/R AML): 2 (9) n (%) | pts achieving ORR ([2]; R/R AML): 41%
